A short description of data set [1]: in vitro. The note with it: dog, MDCK.
The test system of another data set is SARS-CoV-2. In words: microbe, parasite or virus in culture. The note with it: Severe acute respiratory syndrome coronavirus 2, USA-WA1/2020, Vero C1008.
Data set [2] can be described thus: in vitro. As to conditions: human, liver microsomes.
Another data set can be described thus: in vivo. The note with it: rat, po.

The structures appear in SMILES notation. Some results are limits rather than exact numbers.

As usually defined, the Papp A→B is the apparent permeability from the apical to the basolateral side of a cell layer. Broadly, the EC50 is the concentration giving half of the maximal effect. The microsomal CLint is the rate of metabolic loss divided by the concentration. For `CC(C)[C@H](NC(=O)C(F)(F)F)C(=O)N1C[C@H]2[C@@H]([C@H]1C(=O)N[C@@H](C[C@@H]1CCNC1=O)C(=O)c1noc(-c3ccccc3)n1)C2(C)C`, the Papp A→B in the data set “in vitro [1]” was 3.5 ×10⁻⁶ cm/s. The compound also yielded an EC50 with SARS-CoV-2 of 194 nM. The same compound showed a microsomal CLint in the data set “in vitro [2]” of 40.5 µL/min/mg.
The corresponding values for `COCC(=O)[C@H](C[C@@H]1CCNC1=O)NC(=O)[C@@H]1[C@@H]2[C@H](CN1C(=O)[C@@H](NC(=O)C(F)(F)F)C(C)(C)C)C2(C)C` are 0.499 ×10⁻⁶ cm/s, 134 nM and 11.8 µL/min/mg.
In turn, `CC(C)[C@H](NC(=O)C(F)(F)F)C(=O)N1C[C@H]2[C@@H]([C@H]1C(=O)N[C@@H](C[C@@H]1CCNC1=O)C(=O)c1noc(C(C)(C)C)n1)C2(C)C` returned a Papp A→B in “in vitro [1]” of 0.5 ×10⁻⁶ cm/s. This compound gave an EC50 in the data set with SARS-CoV-2 of 625 nM. In addition, the microsomal CLint in “in vitro [2]” was < 7 µL/min/mg.
What is called bioavailability is the share of a dose that reaches the circulation, judged against a reference dose that is usually intravenous. A low value points to little systemic uptake. As for `CC(C)(C)[C@H](NS(C)(=O)=O)C(=O)N1C[C@H]2[C@@H]([C@H]1C(=O)N[C@H](C#N)C[C@@H]1CCNC1=O)C2(C)C`, the Papp A→B in “in vitro [1]” is < 0.193 ×10⁻⁶ cm/s. Besides, the EC50 with SARS-CoV-2 is 540 nM. The bioavailability in the data set “in vivo” is < 1%. The microsomal CLint in “in vitro [2]” is 11.4 µL/min/mg.
The corresponding values for `CC(C)[C@H](NC(=O)C(F)(F)F)C(=O)N1C[C@H]2[C@@H]([C@H]1C(=O)N[C@@H](C[C@@H]1CCNC1=O)C(=O)c1nc3ccccc3o1)C2(C)C` are 2.1 ×10⁻⁶ cm/s, 207 nM, 18% and 7.3 µL/min/mg.
Regarding `CC(C)(C)[C@H](NC(=O)C(F)(F)F)C(=O)N1C[C@H]2[C@@H]([C@H]1C(=O)N[C@@H](C[C@@H]1CCNC1=O)C(=O)CO)C2(C)C`, in the data set “in vitro [1]”, the Papp A→B is < 0.481 ×10⁻⁶ cm/s. Also, in the data set with SARS-CoV-2, the EC50 is < 331 nM. In “in vitro [2]”, the microsomal CLint was < 7 µL/min/mg.
`CNC(=O)N[C@H](C(=O)N1C[C@H]2[C@@H]([C@H]1C(=O)N[C@H](C#N)C[C@@H]1CCNC1=O)C2(C)C)C(C)(C)C`: the Papp A→B in “in vitro [1]” amounted to 0.62 ×10⁻⁶ cm/s. For the same compound, the microsomal CLint in “in vitro [2]” is < 7.12 µL/min/mg.
For `CC(C)(C)[C@H](NS(=O)(=O)C(F)(F)F)C(=O)N1C[C@H]2[C@@H]([C@H]1C(=O)N[C@H](C#N)C[C@@H]1CCNC1=O)C2(C)C`, the Papp A→B in “in vitro [1]” turned out to be 0.7 ×10⁻⁶ cm/s. Moreover, the response with SARS-CoV-2 was half-maximal at 179 nM (EC50). For the same compound, in “in vitro [2]”, the microsomal CLint was < 7.47 µL/min/mg.
Regarding `CC(C)(C)[C@H](NC(=O)CC(F)(F)F)C(=O)N1C[C@H]2[C@@H]([C@H]1C(=O)N[C@H](C#N)C[C@@H]1CCNC1=O)C2(C)C`, the Papp A→B in the data set “in vitro [1]” turned out to be 0.916 ×10⁻⁶ cm/s. A half-maximal effect with SARS-CoV-2 (EC50) was put at 850 nM. In addition, in the data set “in vitro [2]”, the intrinsic clearance (microsomal CLint) was 12.7 µL/min/mg.
The corresponding values for `COc1ccc2nc(C(=O)[C@H](C[C@@H]3CCNC3=O)NC(=O)[C@@H]3[C@@H]4[C@H](CN3C(=O)[C@@H](NC(=O)C(F)(F)F)C(C)C)C4(C)C)sc2c1` are 13.8 ×10⁻⁶ cm/s, 611 nM and 20.7 µL/min/mg.
For `CN(C)C(=O)N[C@H](C(=O)N1C[C@H]2[C@@H]([C@H]1C(=O)N[C@H](C#N)C[C@@H]1CCNC1=O)C2(C)C)C(C)(C)C`, in “in vitro [1]”, the Papp A→B was 0.383 ×10⁻⁶ cm/s. In the data set with SARS-CoV-2, this compound returned a concentration for a half-maximal effect (EC50) of 1780 nM. This compound showed a microsomal CLint in the data set “in vitro [2]” of 22.2 µL/min/mg.
In the case of `CC(C)[C@H](NC(=O)C(F)(F)F)C(=O)N1C[C@H]2[C@@H]([C@H]1C(=O)N[C@@H](C[C@@H]1CCNC1=O)C(=O)c1nc3cc(C(F)(F)F)ccc3s1)C2(C)C`, in the data set “in vitro [1]”, the Papp A→B was determined as 8.8 ×10⁻⁶ cm/s. The response in the data set on SARS-CoV-2 was half-maximal at 64.8 nM (EC50). In the data set “in vitro [2]”, this compound registered a microsomal CLint of 45.3 µL/min/mg.
With `COC(=O)N[C@H](C(=O)N1C[C@H]2[C@@H]([C@H]1C(=O)N[C@H](C#N)C[C@@H]1CCNC1=O)C2(C)C)C(C)(C)C`, the Papp A→B in “in vitro [1]” worked out at 0.61 ×10⁻⁶ cm/s. The same compound returned a bioavailability in “in vivo” of 21%. For the same compound, in “in vitro [2]”, the microsomal CLint turned out to be 8.1 µL/min/mg.
`COc1cccc2[nH]c(C(=O)N[C@@H](CC(C)C)C(=O)N[C@H](C#N)C[C@@H]3CCNC3=O)cc12` registered a Papp A→B in the data set “in vitro [1]” of 0.945 ×10⁻⁶ cm/s. The compound also returned a bioavailability in “in vivo” of 7%.
